Measurements reported in paper PMC9268484, “New Flavonoid Derivatives from Melodorum fruticosum and Their α-Glucosidase Inhibitory and Cytotoxic Activities” (Molecules, 2022).
Like-named read-outs stand apart in the source and are kept apart here.

Tests used:
[1] = MTT cytotoxicity assay, MCF7; type: cell-based; settings: human, means ± SD of three replicates
Method: (§1) The cancer cells were cultured in Dulbecco’s Modified Eagle’s Medium with 10% Fetal Bovine Serum, 1% penicillin and streptomycin, and 1% L-glutamine at 37 °C in a 5% CO2 environment. The tested compounds were added at concentrations ranging from 0.5 to 128 μg/mL by dissolving in DMSO (20 mg/mL) and incubated for a further 72 h in the identical condition. After the treatment, each well was filled with an MTT solution (10 μL, 5 mg/mL) of phosphate buffer, which was left to stand for 4 h until intracellular purple formazan crystals appeared. The MTT was removed and a 100 μL DMSO solution was added. The blank contained only a medium without any cells and MTT, as well as the solubilizing solution. The solution’s optical density (OD) at 540 nm was recorded on a BIOTEK reader. All experiments were carried out in triplicate for three independent experiments. IC50 values were computed graphically using inhibition curves.

α-glucosidase = tested on: α-glucosidase; set-up: method as in doi:10.1016/S0031-9422(99)00314-3; settings: cited from earlier work
KB cell line = tested on: KB cell line; set-up: method as in doi:10.1016/j.phytol.2012.09.007; settings: read-out: Cytotoxicity IC50, KB (previous research); cited from earlier work
MCF7 cell line = settings: cited from earlier work
[2] = MTT cytotoxicity assay, KB; type: cell-based; settings: human, means ± SD of three replicates
Method: as §1

[3] = MTT cytotoxicity assay, Hep G2; type: cell-based; settings: human, means ± SD of three replicates
Method: as §1

normal Vero cell line = tested on: normal Vero cell line; set-up: method as in doi:10.1007/s00044-017-1843-8; settings: cited from earlier work
Hep G2 cell line = tested on: Hep G2 cell line; set-up: method as in PMID 29116937, doi:10.1016/j.phytol.2019.05.003; settings: read-out: Cytotoxicity IC50, Hep G2 (previous research); cited from earlier work
[4] = MCF-7 cells (human breast adenocarcinoma)
[5] = read-out: Cytotoxicity IC50, MCF7 (previous research)

CC(C)=CCc1cc2c(c(O)c1O)C(=O)C[C@@H](c1ccccc1)O2 [Compound 3, melodorone C]
IC50 at 72 h [1, 4]: > 100 µM

COc1cc(O)c2c(=O)cc(-c3ccccc3)oc2c1 [Compound 4, tectochrysin]
α-Glucosidase inhibition (previous research, in words) (α-glucosidase): no α-glucosidase inhibition
IC50 (KB cell line): 55.3 µM
IC50 (MCF7 cell line; [5]): 16.7 µM

O=C1C[C@@H](c2ccccc2)Oc2cc(O)cc(O)c21 [Compound 7, pinocembrin]
IC50 at 72 h ([2]; KB cells (human epidermoid carcinoma)): > 100 µM
IC50 at 72 h ([3]; Hep G2 cells (human hepatocellular carcinoma)): > 100 µM
IC50 at 72 h [1, 4]: > 100 µM
α-Glucosidase inhibition (previous research, in words) (α-glucosidase): no α-glucosidase inhibition
IC50 (MCF7 cell line; 48 h, read-out: Cytotoxicity IC50, MCF7, 48 h): 226 µM
IC50 (MCF7 cell line; 72 h, read-out: Cytotoxicity IC50, MCF7, 72 h): 108 µM
Cytotoxicity against normal Vero cell line (normal Vero cell line): no cytotoxicity

COc1cc2c(c(O)c1OC)C(=O)C[C@@H](c1ccccc1)O2 [Compound 6, onysilin]
IC50 at 72 h [2]: > 100 µM
IC50 at 72 h [3]: > 100 µM
IC50 at 72 h [1]: > 100 µM

O=c1cc(-c2ccccc2)oc2cc(O)cc(O)c12 [Compound 5, chrysin]
IC50 (α-glucosidase; read-out: α-Glucosidase inhibition IC50 (previous research)): 5.7 µM
IC50 (Hep G2 cell line): 50.6 µM
IC50 (MCF7 cell line; [5]): 37.2 µM
Cytotoxicity against normal Vero cell line (normal Vero cell line): no cytotoxicity
